In patent publication US11661582B2, “Method for producing sinoatrial node cells (pacemaker cells) from stem cells, and use of the produced sinoatrial node cells” (UNIVERSITAET ROSTOCK, priority 2013, dated 2023):
Entries after “also recorded” stand apart in the source; their conditions may differ.

What was measured:
murine ES cells = conditions: literature [9]; cited from earlier work
[1] = tested on: sinoatrial node cells produced in vitro from stem cells; experiment: Beat frequency of stem-cell-derived sinoatrial node cells contacted with pharmaceuticals; assay type: cell-based, murine; conditions: sinoatrial node cells of the invention contacted with pharmaceuticals
[2] = tested on: cells derived from iSABs (Myh6-TBX3 cells); experiment: Ca2+ imaging (Fluo-4) of spontaneous Ca2+ transients and SR Ca2+ stores in iSAB-derived cells; assay type: cell-based, murine; conditions: for frequency of spontaneous Ca2+ transients: 5 μM ZD 7288, 1 μM mibefradil, 1 μM nifedipine, 28° C.; for diastolic Ca2+ level: caffeine 10 mM, thapsigargin 2 μM
cells derived from aCaBs = experiment: Ca2+ imaging (Fluo-4) of SR Ca2+ stores in aCaB-derived control cells; assay type: cell-based, murine
[3] = tested on: isolated Tbx3-programmed cells (SA/AV pacemaker-type); experiment: Single-cell patch-clamp, action potential rate of Tbx3-programmed cells; assay type: cell-based, murine; conditions: 37° C.
Method: For the further validation of the functionality and determination of the proportions of the subtypes of the cardiomyocytes, the electrophysiological properties were analyzed by the single-cell patch-clamp technique and the measurement of the density of the HCN (or funny) channels on day 18 of the differentiation as described [14] [16].
Spontaneous action potentials and currents of contracting cardiomyocytes were recorded at 37° C. in the perforated patch configuration using a MultiClamp 700B amplifier and pClamp10 software (Molecular Devices, Union City, USA). The offline data analysis was conducted with Clampfit software (Molecular Devices, Union City, USA) or by means of Origin 6.0 software (Microcal, Northampton, USA). […] The extracellular (bath) solution contained: 140 mM NaCl, 5.4 mM KCl, 1 mM MgCl2, 1.8 mM CaCl2, 5 mM HEPES, 5.5 mM glucose; the pH was adjusted to 7.4 with NaOH. For better recording of the If, in some cases, 2 mM BaCl2 and 0.3 mM CdCl2 were added to the bath solution in order to block IKl and ICa. If was measured by stepwise change proceeding from a hold potential of −40 mV to test potentials between −130 mV and +20 mV. The current amplitude after 3 seconds during the −130 mV pulse was divided by the cell capacitance in order to determine the current (If) density. To determine the If activation kinetics, the time constant of the activation (τ) was obtained by fitting the current trace of the −130 mV step after the initial delay with the sum of two exponential functions y=A1e1 ^−x/τ)+A2e2^(−x/τ), where τ1 and τ2 are fast and slow time constants for the activation; τ1 is accordingly referred to as τ, since the slow component (A2) of the HCN channel activation is generally <10% of the current amplitude. Isoproterenol or carbachol (Sigma, Taufkirchen, Germany) was dissolved directly in the bath solution on the day of the experiment and the cells were administered by means of a rapid exchange superfusion system. APs were recorded with a 10 kHz sampling rate. The analyses were conducted on the original traces. […]

[4] = tested on: cells originating from iSAB; experiment: Single-cell patch-clamp, action potential rate of cells originating from iSAB; assay type: cell-based, murine; conditions: for AP rate: patch-clamp, 37° C.
Method: Spontaneous action potentials and currents of contracting cardiomyocytes were recorded at 37° C. in the perforated patch configuration using a MultiClamp 700B amplifier and pClamp10 software (Molecular Devices, Union City, USA). The offline data analysis was conducted with Clampfit software (Molecular Devices, Union City, USA) or by means of Origin 6.0 software (Microcal, Northampton, USA). […] The extracellular (bath) solution contained: 140 mM NaCl, 5.4 mM KCl, 1 mM MgCl2, 1.8 mM CaCl2, 5 mM HEPES, 5.5 mM glucose; the pH was adjusted to 7.4 with NaOH. For better recording of the If, in some cases, 2 mM BaCl2 and 0.3 mM CdCl2 were added to the bath solution in order to block IKl and ICa. If was measured by stepwise change proceeding from a hold potential of −40 mV to test potentials between −130 mV and +20 mV. The current amplitude after 3 seconds during the −130 mV pulse was divided by the cell capacitance in order to determine the current (If) density. To determine the If activation kinetics, the time constant of the activation (τ) was obtained by fitting the current trace of the −130 mV step after the initial delay with the sum of two exponential functions y=A1e1 ^−x/τ)+A2e2^(−x/τ), where τ1 and τ2 are fast and slow time constants for the activation; τ1 is accordingly referred to as τ, since the slow component (A2) of the HCN channel activation is generally <10% of the current amplitude. Isoproterenol or carbachol (Sigma, Taufkirchen, Germany) was dissolved directly in the bath solution on the day of the experiment and the cells were administered by means of a rapid exchange superfusion system. APs were recorded with a 10 kHz sampling rate. The analyses were conducted on the original traces. The inclination/slope of the linear fit of the distance from the MDP to the potential threshold is the DDR; the AP duration is the time from the threshold potential to the MDP.

Compound: CCn1c(=O)[nH]c2ccccc21 [EBIO]
- formation of node cells from murine ES cells (murine ES cells): enhances the formation of node cells

Compound: CCN(c1ccccc1)c1cc(=NC)n(C)c(C)n1.Cl [ZD 7288]
- beat frequency [1]: significant reduction in beat frequency
- frequency of spontaneous Ca2+ transients [2]: reduced the frequency of the Ca^2+ transients
- frequency of spontaneous Ca2+ transients ([2]; listed as ZD7288): decrease significantly

Compound: Cn1c(=O)c2c(ncn2C)n(C)c1=O [caffeine]
- caffeine-induced Ca2+ peak, sarcolemmal Ca2+ influx blocked ([2]; blockage of Na+/Ca2+ exchanger and Ca2+ channels, iSAB-derived cells compared to aCaB-derived cells): four times greater; also recorded: large caffeine peak
- diastolic Ca2+ level ([2]; iSAB-derived cells): increased the diastolic Ca^2+ level
- caffeine-induced effect on SR-Ca2+ release (cells derived from aCaBs; caffeine 10 mM, aCaB-derived cells): No similar caffeine-induced effect

Compound: C[N+](C)(C)CCOC(N)=O [carbachol]
- beat frequency [1]: significant reduction in beat frequency
- AP rate [3]: slowed
- AP rate [4]: slowed

Compound: CC(C)NCC(O)c1ccc(O)c(O)c1 (stereo not drawn) [isoproterenol]
- beat frequency [1]: increase in beat frequency
- AP rate [3]: acceleration in the AP rate
- AP rate ([3]; listed as isoprotenerol): accelerated
- AP rate [4]: accelerated
- beat frequencies in response to isoprotenerol ([4]; range up to): up to 560 bpm

Compound: COCC(=O)O[C@]1(CCN(C)CCCc2nc3ccccc3[nH]2)CCc2cc(F)ccc2[C@@H]1C(C)C [mibefradil]
- frequency of spontaneous Ca2+ transients [2]: moderate decrease

Compound: C/C=C(/C)C(=O)O[C@H]1C(C)=C2[C@H]([C@@H]1OC(=O)CCCCCCC)[C@@](C)(OC(C)=O)C[C@H](OC(=O)CCC)[C@@]1(O)[C@H]2OC(=O)[C@@]1(C)O [thapsigargin]
- rate of intracellular Ca2+ accumulation with SERCA inhibition ([2]; Na+/Ca2+ exchanger blocked plus SERCA inhibition, vs. no SERCA inhibition, iSAB-derived cells): fourfold increase
- diastolic Ca2+ level ([2]; iSAB-derived cells): increase in the Ca^2+ diastolic level; also recorded: increased diastolic Ca^2+ levels
- reduction of caffeine Ca2+ peak (factor) ([2]; caffeine added 5 min after incubation with thapsigargin, iSAB-derived cells): 4
- caffeine Ca2+ peak with and without SERCA inhibition (cells derived from aCaBs; control cells (aCaB-derived)): remained identical
- intracellular Ca2+ accumulation with SERCA inhibition (cells derived from aCaBs; control cells (aCaB-derived)): impossible to detect any intracellular Ca^2+ accumulation
